Literature values as cited in patent US10744110B2, “Methods of treating lung cancer” (Abraxis BioScience, LLC, priority 2013, dated 2020).

Test system: NSCLC
Details: single agent

In the case of `CCC1=C[C@@H]2CN(C1)Cc1c([nH]c3ccccc13)[C@@](C(=O)OC)(c1cc3c(cc1OC)N(C)[C@H]1[C@@](O)(C(=O)OC)[C@H](OC(C)=O)[C@]4(CC)C=CCN5CC[C@]31[C@@H]54)C2` [vinorelbine], the “response rate (RR)” value is given as 29.4%.
